Legend:
Type in all cases: biochemical
JAK3 = target: T1, JAK3 (Homo sapiens, UniProt P52333); experiment: JAK3 Assay (Caliper EZ Reader, fluoresceinated peptide); settings: ATP 3.5 μM; JAK3 0.5 nM; 30 minutes at room temperature; read-out: JAK3 inhibition
T1 sequence (P52333 1-1124): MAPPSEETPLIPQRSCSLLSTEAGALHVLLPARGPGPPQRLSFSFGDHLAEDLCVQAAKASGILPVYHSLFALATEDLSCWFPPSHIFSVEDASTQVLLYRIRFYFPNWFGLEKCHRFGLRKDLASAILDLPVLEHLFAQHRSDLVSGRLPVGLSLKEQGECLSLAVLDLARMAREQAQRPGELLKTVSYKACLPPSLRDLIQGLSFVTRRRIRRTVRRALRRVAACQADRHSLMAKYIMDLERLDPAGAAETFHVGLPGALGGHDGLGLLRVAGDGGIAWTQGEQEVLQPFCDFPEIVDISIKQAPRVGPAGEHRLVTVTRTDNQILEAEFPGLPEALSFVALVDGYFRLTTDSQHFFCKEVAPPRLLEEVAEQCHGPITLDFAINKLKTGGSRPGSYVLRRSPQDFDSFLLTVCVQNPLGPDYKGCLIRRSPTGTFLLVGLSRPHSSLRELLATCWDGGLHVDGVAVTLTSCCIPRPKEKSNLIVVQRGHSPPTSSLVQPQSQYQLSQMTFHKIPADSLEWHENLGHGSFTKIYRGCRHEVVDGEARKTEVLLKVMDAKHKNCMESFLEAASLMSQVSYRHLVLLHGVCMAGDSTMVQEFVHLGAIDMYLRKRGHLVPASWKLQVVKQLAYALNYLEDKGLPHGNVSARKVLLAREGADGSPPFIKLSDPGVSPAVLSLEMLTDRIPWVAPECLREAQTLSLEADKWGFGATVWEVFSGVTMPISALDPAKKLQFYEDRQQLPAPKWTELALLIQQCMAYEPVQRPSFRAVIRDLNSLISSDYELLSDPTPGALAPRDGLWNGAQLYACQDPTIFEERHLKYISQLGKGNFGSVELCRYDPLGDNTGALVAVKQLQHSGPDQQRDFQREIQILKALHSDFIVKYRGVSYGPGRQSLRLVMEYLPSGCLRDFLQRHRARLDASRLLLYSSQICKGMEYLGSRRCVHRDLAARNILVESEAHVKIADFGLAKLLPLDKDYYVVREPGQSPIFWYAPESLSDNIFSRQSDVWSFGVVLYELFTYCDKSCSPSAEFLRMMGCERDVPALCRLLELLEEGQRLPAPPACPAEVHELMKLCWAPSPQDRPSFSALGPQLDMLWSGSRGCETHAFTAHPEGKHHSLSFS

JAK2 = JAK2 (Homo sapiens, UniProt O60674); experiment: JAK2 Assay (Caliper EZ Reader, fluoresceinated peptide); settings: ATP 11.4 μM; JAK2 0.25 nM; 15 minutes at room temperature; read-out: JAK2 inhibition
TYK2 = TYK2 (Homo sapiens, UniProt P29597); experiment: TYK2 Assay (Caliper EZ Reader, fluoresceinated peptide); settings: ATP 35.4 μM; TYK2 10 nM; 10 minutes at room temperature; read-out: TYK2 inhibition
Description: 384-well plates in the left foot butoxy measured progress. The final assay volume was 25 μL, 250 nL 100× compounds, 10 μL enzyme mix and 15 μL substrate mix (fluoresceinated peptide and ATP) in assay buffer (50 mM HEPES (pH 7.5), 10 mM MgCl2, 0.01% TritonX-100, 0.01% Brij35, 0.5 mM EGTA and 2 mM DTT) prepared as test compound. B mixing the TYK2 with substrates and test compounds to start the reaction. The reaction mixture was incubated for 10 minutes at room temperature, then added 30 μL stop buffer for each sample to terminate the reaction with 50 mM EDTA. After termination of the kinase reaction, the proportion of phosphorylated product was determined as a fraction of total peptide substrate using Caliper EZ Reader 1. Inhibition data were calculated by comparison with 100% of the reaction mixture without enzyme inhibition and vehicle-only reaction mixture billion % inhibition compared. The final concentration of reagents in the assays is: ATP, 35.4 μM; TYK2 fluorescent peptide (5-FAM-KKKKEEIYFFF-CONH2), 3 μM; TYK2, 10 nM; and DMSO, 1% Dose response curve were generated to determine the concentration required for IC50 of TYK2 activity.

JAK1 = JAK1 (Homo sapiens, UniProt P23458); experiment: JAK Kinase Assay (JAK1, Caliper EZ Reader, fluoresceinated peptide); settings: ATP 76.5 μM; JAK1 10 nM; 120 minutes at room temperature; read-out: JAK1 inhibition
Sequence of JAK1 (P23458 whole entry, species assumed): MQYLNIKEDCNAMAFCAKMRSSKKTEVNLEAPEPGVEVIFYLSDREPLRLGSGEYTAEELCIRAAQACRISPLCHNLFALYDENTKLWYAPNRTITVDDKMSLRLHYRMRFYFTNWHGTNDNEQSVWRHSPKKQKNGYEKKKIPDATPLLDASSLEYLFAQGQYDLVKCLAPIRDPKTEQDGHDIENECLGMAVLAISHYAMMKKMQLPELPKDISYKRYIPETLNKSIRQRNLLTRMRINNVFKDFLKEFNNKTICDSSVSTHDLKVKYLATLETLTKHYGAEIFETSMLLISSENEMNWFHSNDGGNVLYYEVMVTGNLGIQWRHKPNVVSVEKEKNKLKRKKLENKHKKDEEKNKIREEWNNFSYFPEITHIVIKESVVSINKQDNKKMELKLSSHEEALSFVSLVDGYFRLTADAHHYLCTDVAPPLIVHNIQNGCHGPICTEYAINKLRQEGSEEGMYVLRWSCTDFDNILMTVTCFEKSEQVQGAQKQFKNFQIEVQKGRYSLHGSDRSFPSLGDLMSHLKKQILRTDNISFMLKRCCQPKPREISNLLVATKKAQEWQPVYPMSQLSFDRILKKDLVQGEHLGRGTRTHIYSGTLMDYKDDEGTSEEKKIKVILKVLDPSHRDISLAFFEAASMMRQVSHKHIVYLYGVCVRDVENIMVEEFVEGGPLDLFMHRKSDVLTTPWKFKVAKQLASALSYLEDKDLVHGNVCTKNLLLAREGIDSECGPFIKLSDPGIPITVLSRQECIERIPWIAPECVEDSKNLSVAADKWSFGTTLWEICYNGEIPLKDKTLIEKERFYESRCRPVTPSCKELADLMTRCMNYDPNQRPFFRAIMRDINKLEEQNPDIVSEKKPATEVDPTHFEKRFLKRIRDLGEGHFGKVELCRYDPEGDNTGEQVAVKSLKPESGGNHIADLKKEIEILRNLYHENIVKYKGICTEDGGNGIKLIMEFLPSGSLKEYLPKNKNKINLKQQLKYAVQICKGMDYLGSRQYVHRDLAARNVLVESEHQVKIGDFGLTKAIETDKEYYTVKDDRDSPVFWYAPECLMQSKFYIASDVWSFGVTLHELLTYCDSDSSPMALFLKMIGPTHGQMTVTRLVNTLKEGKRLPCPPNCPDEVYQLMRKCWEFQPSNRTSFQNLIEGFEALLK

Sequence of TYK2 (P29597 whole entry, species assumed): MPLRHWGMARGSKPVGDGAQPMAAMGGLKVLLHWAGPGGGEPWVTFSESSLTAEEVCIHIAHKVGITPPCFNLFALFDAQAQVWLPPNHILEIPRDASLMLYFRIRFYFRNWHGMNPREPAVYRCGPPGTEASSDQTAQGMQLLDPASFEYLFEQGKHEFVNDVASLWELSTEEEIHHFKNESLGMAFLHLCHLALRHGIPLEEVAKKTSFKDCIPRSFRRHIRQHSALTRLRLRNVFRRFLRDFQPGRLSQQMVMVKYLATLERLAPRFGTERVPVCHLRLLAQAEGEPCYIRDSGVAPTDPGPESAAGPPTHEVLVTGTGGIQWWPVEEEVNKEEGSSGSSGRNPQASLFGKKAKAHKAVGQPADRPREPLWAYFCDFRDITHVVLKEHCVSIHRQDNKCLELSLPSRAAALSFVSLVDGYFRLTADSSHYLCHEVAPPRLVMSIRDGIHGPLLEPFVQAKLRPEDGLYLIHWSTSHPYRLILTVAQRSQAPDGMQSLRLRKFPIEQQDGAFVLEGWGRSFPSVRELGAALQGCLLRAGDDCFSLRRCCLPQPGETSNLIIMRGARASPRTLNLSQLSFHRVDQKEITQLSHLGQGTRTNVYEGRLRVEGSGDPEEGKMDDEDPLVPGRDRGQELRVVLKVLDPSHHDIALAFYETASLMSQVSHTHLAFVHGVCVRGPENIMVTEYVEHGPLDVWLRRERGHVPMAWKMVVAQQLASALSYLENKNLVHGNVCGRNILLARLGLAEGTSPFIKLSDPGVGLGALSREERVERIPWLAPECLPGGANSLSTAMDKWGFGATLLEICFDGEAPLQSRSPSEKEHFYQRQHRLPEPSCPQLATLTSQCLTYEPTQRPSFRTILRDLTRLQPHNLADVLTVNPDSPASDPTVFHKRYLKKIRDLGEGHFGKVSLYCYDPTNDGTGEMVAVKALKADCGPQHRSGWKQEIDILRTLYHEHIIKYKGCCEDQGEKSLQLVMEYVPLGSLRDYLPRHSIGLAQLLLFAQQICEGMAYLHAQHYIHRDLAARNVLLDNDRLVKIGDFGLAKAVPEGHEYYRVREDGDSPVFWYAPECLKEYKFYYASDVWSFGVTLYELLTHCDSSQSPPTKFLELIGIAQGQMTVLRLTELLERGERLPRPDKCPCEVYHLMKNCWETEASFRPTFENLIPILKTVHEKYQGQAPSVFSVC
Sequence of JAK2 (O60674 whole entry, species assumed): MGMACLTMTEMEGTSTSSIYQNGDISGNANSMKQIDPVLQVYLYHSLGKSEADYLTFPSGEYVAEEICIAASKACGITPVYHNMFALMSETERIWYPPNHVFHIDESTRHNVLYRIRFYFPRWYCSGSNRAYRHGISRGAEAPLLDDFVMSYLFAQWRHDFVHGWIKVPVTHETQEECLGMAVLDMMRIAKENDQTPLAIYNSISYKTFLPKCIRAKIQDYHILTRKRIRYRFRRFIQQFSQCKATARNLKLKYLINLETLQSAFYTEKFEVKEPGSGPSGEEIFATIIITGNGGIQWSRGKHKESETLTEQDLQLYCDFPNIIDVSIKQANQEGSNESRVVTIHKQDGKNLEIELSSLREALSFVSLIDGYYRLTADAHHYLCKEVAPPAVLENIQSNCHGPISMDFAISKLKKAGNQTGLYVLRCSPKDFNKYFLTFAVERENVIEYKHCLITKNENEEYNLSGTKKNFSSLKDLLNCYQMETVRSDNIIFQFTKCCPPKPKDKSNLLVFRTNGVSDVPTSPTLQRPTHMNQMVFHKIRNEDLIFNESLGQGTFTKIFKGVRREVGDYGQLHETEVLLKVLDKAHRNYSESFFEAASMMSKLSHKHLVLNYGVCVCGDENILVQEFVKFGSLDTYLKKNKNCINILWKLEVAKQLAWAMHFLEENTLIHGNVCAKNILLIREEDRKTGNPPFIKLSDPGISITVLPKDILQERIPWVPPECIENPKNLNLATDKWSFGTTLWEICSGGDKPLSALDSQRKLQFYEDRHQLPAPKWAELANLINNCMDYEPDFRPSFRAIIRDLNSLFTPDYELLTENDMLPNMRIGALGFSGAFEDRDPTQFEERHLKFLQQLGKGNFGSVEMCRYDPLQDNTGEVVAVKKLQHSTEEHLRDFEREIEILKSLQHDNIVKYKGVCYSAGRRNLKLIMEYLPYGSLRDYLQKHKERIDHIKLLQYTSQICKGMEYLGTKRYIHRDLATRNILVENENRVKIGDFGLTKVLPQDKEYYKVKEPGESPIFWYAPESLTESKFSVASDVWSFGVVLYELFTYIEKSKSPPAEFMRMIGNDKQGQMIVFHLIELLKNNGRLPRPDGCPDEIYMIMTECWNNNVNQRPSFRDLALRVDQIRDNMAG

| Structure (SMILES) | IC50 (JAK3) [nM] | IC50 (JAK2) [nM] | IC50 (TYK2) [nM] | IC50 (JAK1) [nM] |
| --- | --- | --- | --- | --- |
| CN(c1ncnc2[nH]ccc12)C1CC2(C1)CN(C(=O)c1ccc(C#N)c(F)c1F)C2 [Compound 53, 2,3-difluoro-4-(6-(methyl(7H-pyrrolo[2,3-d]pyrimidin-4-yl)amino)-2-azaspiro[3.3]heptane-2-carbonyl)benzonitrile] | 1000 to 10000 | 100 to 1000 | 1000 to 10000 | ≤ 10 |
| CN(c1ncnc2[nH]ccc12)C1CCC2(CC1)CCN(C(=O)CCS(C)(=O)=O)CC2 [Compound 86, 3-Methanesulfonyl-1-{9-[methyl-(7H-pyrrolo[2,3-d]pyrimidin-4-yl)-amino]-3-aza-spiro[5.5]undec-3-yl}-propan-1-one] | 1000 to 10000 | 100 to 1000 | – | 100 to 1000 |
| CN(c1ncnc2[nH]ccc12)C1CCC2(CC1)CCN(C(=O)CC#N)CC2 [Compound 104, 3-{9-[Methyl-(7H-pyrrolo[2,3-d]pyrimidin-4-yl)-amino]-3-aza-spiro[5.5]undec-3-yl}-3-oxo-propionitrile] | 1000 to 10000 | 1000 to 10000 | – | 1000 to 10000 |
| COC(=O)N1CC2(CC(N(C)c3ncnc4[nH]ccc34)C2)C1 [Compound 7, methyl 6-(methyl(7H-pyrrolo[2,3-d]pyrimidin-4-yl)amino)-2-azaspiro[3.3]heptan-2-carboxylate] | 1000 to 10000 | 1000 to 10000 | – | 100 to 1000 |
| CN(c1ncnc2[nH]ccc12)C1CCC2(CC1)CCN(C(=O)c1cccnc1)CC2 [Compound 80, {9-[Methyl-(7H-pyrrolo[2,3-d]pyrimidin-4-yl)-amino]-3-aza-spiro[5.5]undec-3-yl}-pyridin-3-yl-methanone] | 100 to 1000 | 100 to 1000 | – | 100 to 1000 |
| Cc1ccsc1C(=O)N1CCC2(CCC(N(C)c3ncnc4[nH]ccc34)CC2)CC1 [Compound 94, {9-[Methyl-(7H-pyrrolo[2,3-d]pyrimidin-4-yl)-amino]-3-aza-spiro[5.5]undec-3-yl}-(3-methyl-thiophen-2-yl)-methanone] | 1000 to 10000 | 100 to 1000 | – | 100 to 1000 |
| CN(c1ncnc2[nH]ccc12)C1CCC2(CC1)CCN(C(=O)c1cnccn1)CC2 [Compound 88, {9-[Methyl-(7H-pyrrolo[2,3-d]pyrimidin-4-yl)-amino]-3-aza-spiro[5.5]undec-3-yl}-pyrazin-2-yl-methanone] | 1000 to 10000 | 100 to 1000 | – | 100 to 1000 |
| CN(c1ncnc2[nH]ccc12)C1CCC2(CC1)CCN(C(=O)Cc1c[nH]c3ccccc13)CC2 [Compound 93, 2-(1H-Indol-3-yl)-1-{9-[methyl-(7H-pyrrolo[2,3-d]pyrimidin-4-yl)-amino]-3-aza-spiro[5.5]undec-3-yl}-ethanone] | 100 to 1000 | 100 to 1000 | – | 100 to 1000 |
| Cc1cc(C(=O)N2CC3(CC(N(C)c4ncnc5[nH]ccc45)C3)C2)ccc1C#N [Compound 34, 2-methyl-4-(6-(methyl(7H-pyrrolo[2,3-d]pyrimidin-4-yl)amino)-2-azaspiro[3.3]heptane-2-carbonyl)benzonitrile] | 1000 to 10000 | 1000 to 10000 | – | 10 to 100 |
| CN(c1ncnc2[nH]ccc12)C1CC2(C1)CN(C(=O)Cc1c[nH]c3ccccc13)C2 [Compound 23, 2-(1H-indol-3-yl)-1-(6-(methyl(7H-pyrrolo[2,3-d]pyrimidin-4-yl)amino)-2-azaspiro[3.3]heptan-2-yl)ethanone] | 1000 to 10000 | 1000 to 10000 | – | 100 to 1000 |

Other lines, results leading:

| IC50 (JAK3) [nM] | IC50 (JAK2) [nM] | IC50 (TYK2) [nM] | IC50 (JAK1) [nM] | Structure (SMILES) |
| --- | --- | --- | --- | --- |
| ≥ 10000 | 1000 to 10000 | ≥ 10000 | 10 to 100 | COc1ccc(C(=O)N2CC3(CC(N(C)c4ncnc5[nH]ccc45)C3)C2)cc1 [Compound 24, (4-methoxyphenyl)(6-(methyl(7H-pyrrolo[2,3-d]pyrimidin-4-yl)amino)-2-azaspiro[3.3]heptan-2-yl)methanone] |
| ≥ 10000 | 100 to 1000 | 1000 to 10000 | 10 to 100 | CN(c1ncnc2[nH]ccc12)C1CC2(C1)CN(C(=O)c1cc3ccccc3[nH]1)C2 [Compound 30, (1H-indol-2-yl)(6-(methyl(7H-pyrrolo[2,3-d]pyrimidin-4-yl)amino)-2-azaspiro[3.3]heptan-2-yl)methanone] |
| 1000 to 10000 | 100 to 1000 | – | 10 to 100 | CN(c1ncnc2[nH]ccc12)C1CC2(C1)CN(C(=O)c1cccnc1)C2 [Compound 9, (6-(methyl(7H-pyrrolo[2,3-d]pyrimidin-4-yl)amino)-2-azaspiro[3.3]heptan-2-yl)(pyridin-3-yl)methanone] |
| 1000 to 10000 | 100 to 1000 | – | ≤ 10 | C#Cc1ccc(C(=O)N2CC3(CC(N(C)c4ncnc5[nH]ccc45)C3)C2)cc1C [Compound 40, (4-ethynyl-3-methylphenyl)(6-(methyl(7H-pyrrolo[2,3-d]pyrimidin-4-yl)amino)-2-azaspiro[3.3]heptan-2-yl)methanone] |
| 1000 to 10000 | 10 to 100 | – | ≤ 10 | C#Cc1ccc(C(=O)N2CC3(CC(N(C)c4ncnc5[nH]ccc45)C3)C2)c(F)c1 [Compound 41, (4-ethynyl-2-fluorophenyl)(6-(methyl(7H-pyrrolo[2,3-d]pyrimidin-4-yl)amino)-2-azaspiro[3.3]heptan-2-yl)methanone] |
| 1000 to 10000 | 100 to 1000 | – | 100 to 1000 | CN(c1ncnc2[nH]ccc12)C1CCC2(CC1)CCN(C(=O)C1(C#N)CC1)CC2 [Compound 89, 1-{9-[Methyl-(7H-pyrrolo[2,3-d]pyrimidin-4-yl)-amino]-3-aza-spiro[5.5]undecane-3-carbonyl}-cyclopropanecarbonitrile] |
| 1000 to 10000 | 100 to 1000 | – | 10 to 100 | CN(c1ncnc2[nH]ccc12)C1CC2(C1)CN(C(=O)c1ccc(I)cc1)C2 [Compound 38, (4-iodophenyl)(6-(methyl(7H-pyrrolo[2,3-d]pyrimidin-4-yl)amino)-2-azaspiro[3.3]heptan-2-yl)methanone] |
| ≥ 10000 | ≥ 10000 | – | 100 to 1000 | CN(c1ncnc2[nH]ccc12)C1CC2(C1)CN(C(=O)c1ccn(C)n1)C2 [Compound 50, (6-(methyl(7H-pyrrolo[2,3-d]pyrimidin-4-yl)amino)-2-azaspiro[3.3]heptan-2-yl)(1-methyl-1H-pyrazol-3-yl)methanone] |
| 1000 to 10000 | 100 to 1000 | – | 100 to 1000 | CN(c1ncnc2[nH]ccc12)C1CCC2(CC1)CCN(C(=O)c1cccc(C(F)(F)F)c1)CC2 [Compound 83, {9-[Methyl-(7H-pyrrolo[2,3-d]pyrimidin-4-yl)-amino]-3-aza-spiro[5.5]undec-3-yl}-(3-trifluoromethyl-phenyl)-methanone] |
| 1000 to 10000 | 100 to 1000 | – | 100 to 1000 | CCS(=O)(=O)N1CCC2(CCC(N(C)c3ncnc4[nH]ccc34)CC2)CC1 [Compound 76, (3-Ethanesulfonyl-3-aza-spiro[5.5]undec-9-yl)-methyl-(7H-pyrrolo[2,3-d]pyrimidin-4-yl)-amine] |
| 1000 to 10000 | 10 to 100 | – | ≤ 10 | CC#Cc1ccc(C(=O)N2CC3(CC(N(C)c4ncnc5[nH]ccc45)C3)C2)cc1 [Compound 42, (6-(methyl(7H-pyrrolo[2,3-d]pyrimidin-4-yl)amino)-2-azaspiro[3.3]heptan-2-yl)(4-(prop-1-yn-1-yl)phenyl)methanone] |
